Results: ChEMBL document CHEMBL3351779, “New tetracyclic tacrine analogs containing pyrano[2,3-c]pyrazole: efficient synthesis, biological assessment and docking simulation study” (Eur J Med Chem, 2015)

Key:
[1] = target: Cholinesterase (Equus caballus, UniProt P81908)
Description: Inhibition of equine serum BuChE using butylthiocholine iodide as substrate preincubated for 10 mins followed by substrate addition by Ellman's method

[2] = target: T1, Acetylcholinesterase (Electrophorus electricus, UniProt O42275)
Description: Inhibition of electric eel AChE using acetylthiocholine iodide as substrate preincubated for 10 mins followed by substrate addition by Ellman's method

[3] = Neuroprotective activity against H2O2-induced cell death in rat PC12 cells assessed as cell viability at 10 uM after 24 hrs by MTT assay relative to control; assay type: functional; conditions: PC-12, 24 h, read-out: Activity
[4] = target: T1, Acetylcholinesterase; test: Inhibition of electric eel AChE by Lineweaver-Burk plot

T1 sequence (O42275 whole entry): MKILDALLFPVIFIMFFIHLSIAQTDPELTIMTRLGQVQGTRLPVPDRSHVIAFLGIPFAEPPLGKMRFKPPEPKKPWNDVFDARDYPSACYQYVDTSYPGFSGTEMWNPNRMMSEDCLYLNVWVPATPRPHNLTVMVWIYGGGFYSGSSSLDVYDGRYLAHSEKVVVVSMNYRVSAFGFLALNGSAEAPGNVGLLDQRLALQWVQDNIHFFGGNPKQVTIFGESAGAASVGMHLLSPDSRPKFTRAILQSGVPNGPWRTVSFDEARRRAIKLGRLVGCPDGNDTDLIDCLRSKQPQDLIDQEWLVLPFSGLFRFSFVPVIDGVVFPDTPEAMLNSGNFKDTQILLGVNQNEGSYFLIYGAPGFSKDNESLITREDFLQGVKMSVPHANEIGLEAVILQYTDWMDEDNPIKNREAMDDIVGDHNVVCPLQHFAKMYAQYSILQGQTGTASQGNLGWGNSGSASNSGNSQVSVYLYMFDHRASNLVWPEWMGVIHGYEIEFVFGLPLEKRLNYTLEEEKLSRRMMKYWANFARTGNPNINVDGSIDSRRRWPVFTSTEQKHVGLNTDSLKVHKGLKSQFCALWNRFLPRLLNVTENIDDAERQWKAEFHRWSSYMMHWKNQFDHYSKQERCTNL
Cholinesterase, sequence (P81908 whole entry): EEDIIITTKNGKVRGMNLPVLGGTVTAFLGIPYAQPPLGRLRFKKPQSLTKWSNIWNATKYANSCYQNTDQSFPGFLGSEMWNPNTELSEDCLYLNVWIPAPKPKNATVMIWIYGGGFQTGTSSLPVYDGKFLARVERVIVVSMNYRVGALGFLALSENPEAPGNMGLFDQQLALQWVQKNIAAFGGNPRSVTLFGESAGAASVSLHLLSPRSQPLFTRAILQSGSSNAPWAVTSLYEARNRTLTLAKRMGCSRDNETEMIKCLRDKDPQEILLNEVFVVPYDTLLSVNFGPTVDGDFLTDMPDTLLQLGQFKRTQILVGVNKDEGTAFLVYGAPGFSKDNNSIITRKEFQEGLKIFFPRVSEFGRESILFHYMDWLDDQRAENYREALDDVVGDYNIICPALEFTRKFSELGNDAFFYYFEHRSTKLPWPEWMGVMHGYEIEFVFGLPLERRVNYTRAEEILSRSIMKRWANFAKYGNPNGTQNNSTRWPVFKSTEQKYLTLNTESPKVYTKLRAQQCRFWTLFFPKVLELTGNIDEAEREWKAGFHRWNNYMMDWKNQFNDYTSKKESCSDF

## COc1ccc(OC)c(C2c3c(n[nH]c3C)Oc3nc4c(c(N)c32)CCCC4)c1 (racemic)
[1]
  IC50: > 100 µM
[2]
  IC50: 0.5 µM

## Cc1ccc(C2c3c(n[nH]c3C)Oc3nc4c(c(N)c32)CCCC4)cc1 (racemic)
[1]
  IC50: 4.5 µM
[2]
  IC50: 0.75 µM

## COc1ccccc1C1c2c(n[nH]c2C)Oc2nc3c(c(N)c21)CCCC3 (racemic)
[1]
  IC50: > 100 µM
[2]
  IC50: > 10 µM

## Cc1[nH]nc2c1C(c1ccccc1F)c1c(nc3c(c1N)CCCC3)O2 (racemic)
[1]
  IC50: 33 µM
[2]
  IC50: 0.59 µM

## O=c1c(O)c(-c2ccc(O)c(O)c2)oc2cc(O)cc(O)c12 [QUERCETIN]
[3]
  viability at 10 µM: 51.6%

## Cc1[nH]nc2c1C(c1cccc(Cl)c1Cl)c1c(nc3c(c1N)CCCC3)O2 (racemic)
[1]
  IC50: > 100 µM
[2]
  IC50: 0.87 µM

## Cc1[nH]nc2c1C(c1ccc(F)cc1)c1c(nc3c(c1N)CCCC3)O2 (racemic)
[1]
  IC50: 25 µM
[2]
  IC50: 0.81 µM

## Cc1[nH]nc2c1C(c1cccs1)c1c(nc3c(c1N)CCCC3)O2 (racemic)
[1]
  IC50: 16 µM
[2]
  IC50: 0.72 µM

## COc1ccc(C2c3c(n[nH]c3C)Oc3nc4c(c(N)c32)CCCC4)cc1 (racemic)
[1]
  IC50: > 100 µM
[2]
  IC50: 0.31 µM

## Cc1[nH]nc2c1C(c1cccc3ccccc13)c1c(nc3c(c1N)CCCC3)O2 (racemic)
[1]
  IC50: 15 µM
[2]
  IC50: 0.32 µM

## COc1ccc(C2c3c(n[nH]c3C)Oc3nc4c(c(N)c32)CCCC4)cc1OC (racemic)
[1]
  IC50: > 100 µM
[3]
  viability at 10 µM: 48.4%
[4]
  Ki: 0.49 µM
[2]
  IC50: 0.19 µM

## Cc1[nH]nc2c1C(c1cccc([N+](=O)[O-])c1)c1c(nc3c(c1N)CCCC3)O2 (racemic)
[1]
  IC50: > 100 µM
[2]
  IC50: 3.27 µM

## COc1cc(C2c3c(n[nH]c3C)Oc3nc4c(c(N)c32)CCCC4)cc(OC)c1OC (racemic)
[1]
  IC50: > 100 µM
[2]
  IC50: 2.18 µM
